Experimental data taken from patent publication US20190382827A1, “USE OF MICROBIAL METABOLITES FOR TREATING DISEASES” (Yeda Research and Development Co. Ltd., priority 2015, published 2019).

Experiments:
NLRP6 inflammasome [1] = conditions: for taurine-mediated increase in IL-18 production: organoids, histamine and spermine supplemented in addition to taurine
Method: (I, J) IL-18 production by WT (I) and Nlrp6^−/− (J) colonic organoids incubated with either taurine or taurine+histamine+spermine.
(K) Representative organoid images from experiments shown in (I) and (J).

commensal bacteria = assay: Anaerobic microbiota cultures supplemented with metabolites; design: species or system mouse; conditions: anaerobic culturing
NLRP6 inflammasome [2] = assay: Colon explants cultured with metabolites (IL-18 ELISA, caspase-1 immunoblot, gene expression); assay type: cell-based, mouse; conditions: for IL-18 protein levels: Nlrp3-/- explants; for IL-18 suppression with increasing doses: colonic explant-based validation screen; for IL-18 transcript (mRNA) levels / caspase-1 cleavage / processing: colonic explants; for caspase-1 cleavage / processing: 12 hours incubation, immunoblot p45/p20; for suppression of IL-18 secretion, metabolite screen: cultured WT colon explants
Method: Colons were excised and washed thoroughly with PBS, homogenized in RIPA buffer containing protease inhibitors, incubated for 20 min in 4° C. and centrifuged for 20 min, 14,000 rpm at 4° C. Samples were separated on 15% acrylamide gels and transferred onto nitrocellulose membranes. Western blot analysis was performed using anti-caspase 1 p20 polyclonal antibody (Adipogen, AG-20B-0042B-C100) and Goat anti mouse antibody (Jackson ImmunoResearch, 115-035-003). Band density was calculated using ImageJ software. Colon pieces, 0.5 cm long, from the proximal colon were removed, rinsed with PBS, and weighed. The tissue explants were cultured for 24 hrs in DMEM medium containing 10% FBS, L-glutamine, penicillin, and streptomycin at 37° C. Culture medium was collected, centrifuged and the resulting supernatant stored in aliquots at -20° C. Concentrations of IL-18 in the serum or culture supernatants were measured using ELISA. […] Samples were then washed and plates were incubated with anti-mouse IL-18-biotin antibody ([…]-6 MBL) for 1 hour and HRP-Avidin (BioLegend) for 1 hour before quantification. […] For AMP induction in-vitro, 3 μg IL-18 were added to colon explants for 7 hours, then the explants were maintained in RNAlater and RNA was extracted. Tissues were preserved in RNAlater solution (Ambion) and subsequently homogenized in Tri Reagent (Fox et al.). RNA was purified according to the manufacturer's instructions. Two microgram of total RNA was used to generate cDNA (HighCapacity cDNA Reverse Transcription kit; Applied Biosystems). RealTime-PCR was performed using gene-specific primer/probe sets (Applied Biosystems) and Kapa Probe Fast qPCR kit (Kapa Biosystems) on a Viia7 instrument (Applied Biosystems). PCR conditions were 95° C. for 20 s, followed by 40 cycles of 95° C. for 3 s and 60° C. for 30 s. Data were analyzed using the deltaCt method with hprt serving as the reference housekeeping gene.

**Q.** With `NCCCNCCCCNCCCN` [spermine] as the compound, how does the “organoid (spheroid) growth or morphology” value (NLRP6 inflammasome [1]) read?
**A.** not affecting

**Q.** And the “taurine-mediated increase in IL-18 production” value (NLRP6 inflammasome [1])?
**A.** diminished

**Q.** What about the “composition of anaerobic microbiota cultures” value (commensal bacteria) of the same compound?
**A.** did not feature significant compositional alterations

**Q.** What about the IL-18 protein levels (NLRP6 inflammasome [2]) of the same compound?
**A.** decreased

**Q.** And the “IL-18 suppression with increasing doses” value (NLRP6 inflammasome [2])?
**A.** concentration-dependent IL-18 suppressive functions

**Q.** And the “IL-18 transcript (mRNA) levels” value (NLRP6 inflammasome [2])?
**A.** no change

**Q.** And the “caspase-1 cleavage / processing” value (NLRP6 inflammasome [2])?
**A.** reduced

**Q.** And the “suppression of IL-18 secretion, metabolite screen” value (NLRP6 inflammasome [2])?
**A.** strongest suppressors

**Q.** Which “organoid (spheroid) growth or morphology” value (NLRP6 inflammasome [1]) does the source give for `NCCc1c[nH]cn1` [histamine] here?
**A.** not affecting

**Q.** And the “taurine-mediated increase in IL-18 production” value (NLRP6 inflammasome [1])?
**A.** diminished

**Q.** And the “composition of anaerobic microbiota cultures” value (commensal bacteria)?
**A.** did not feature significant compositional alterations

**Q.** What about the IL-18 protein levels (NLRP6 inflammasome [2]) of the same compound?
**A.** decreased

**Q.** What about the “IL-18 suppression with increasing doses” value (NLRP6 inflammasome [2]) of the same compound?
**A.** concentration-dependent IL-18 suppressive functions

**Q.** And the “IL-18 transcript (mRNA) levels” value (NLRP6 inflammasome [2])?
**A.** no change

**Q.** What about the “caspase-1 cleavage / processing” value (NLRP6 inflammasome [2]) of the same compound?
**A.** reduced

**Q.** What about the “suppression of IL-18 secretion, metabolite screen” value (NLRP6 inflammasome [2]) of the same compound?
**A.** strongest suppressors

**Q.** What does the source list for `NCCS(=O)(=O)O` [taurine]?
**A.** organoid (spheroid) growth or morphology (NLRP6 inflammasome [1]): not affecting; IL-18 secretion (NLRP6 inflammasome [1]; WT organoids): induced; composition of anaerobic microbiota cultures (commensal bacteria): did not feature significant compositional alterations; AMPs (Ang4) expression (NLRP6 inflammasome [2]; WT explants cultured for 8 hours): induced upregulation; dependence of IL-18 induction on NLRP6 / NLRP3 (NLRP6 inflammasome [2]; WT, Nlrp6-/- and Nlrp3-/- colon explants): dependent on NLRP6, but not on NLRP3; inflammasome suppression (IL-18 production) by spermine or histamine upon concomitant taurine (NLRP6 inflammasome [2]; colon explants cultured with histamine and spermine, with addition of taurine): rescued; caspase-1 cleavage / processing (NLRP6 inflammasome [2]): enhanced; IL-18 induction (NLRP6 inflammasome [2]; sterile WT colonic explants, metabolite screen and increasing doses): strongest dose-dependent inductive activity
